Results as given in ChEMBL document CHEMBL1201862, “PubChem BioAssay data set” (2004).
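Grown in 96-well plates, cells were treated for 48 hours with each compound at five concentrations. Insufficient inhibition: endpoint recorded as highest concentration tested. Here, GI50 denotes the concentration required for 50% inhibition of growth.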 Activity calls are given as the source filed them. No stated cut-off is given here; in the data, active = GI50 up to about 1.1 µM and inactive = higher.

Legend:
Assay in all cases: NCI anticancer screen, dose series, 48 h
HT-29 = test system: HT-29
SF-295 = test system: SF-295
SN12C = test system: SN12C
786-0 = test system: 786-0
MOLT-4 = test system: MOLT-4
M14 = test system: M14
OVCAR-8 = test system: OVCAR-8
KM12 = test system: KM12
SF-539 = test system: SF-539
NCI-H23 = test system: NCI-H23
RPMI-8226 = test system: RPMI-8226
OVCAR-4 = test system: OVCAR-4
SR = test system: SR
SK-OV-3 = test system: SK-OV-3
SF-268 = test system: SF-268
SNB-75 = test system: SNB-75
HOP-62 = test system: HOP-62

Measured: GI50

C[N+](C)(C)C.FC(F)(F)C1(C(F)(F)F)O[SiH-]2(OC(C(F)(F)F)(C(F)(F)F)c3ccccc32)c2ccccc21
inactive: HT-29 11.2 µM | SF-295 4.81 µM | SN12C 18.1 µM | 786-0 16.7 µM | MOLT-4 11.7 µM | M14 10 µM | OVCAR-8 15.3 µM | KM12 19.9 µM | SF-539 11.9 µM | NCI-H23 11 µM | RPMI-8226 16.4 µM | OVCAR-4 6.47 µM | SR 14.5 µM

CCOc1cc(NC(C)=O)ccc1C(=O)NN1C(=O)/C(=C/c2cc(OC)c(OC)c(OC)c2)N=C1c1ccccc1
inactive: HT-29 > 100 µM | SF-295 > 100 µM | SN12C > 100 µM | 786-0 > 100 µM | MOLT-4 > 100 µM | M14 64.9 µM | SK-OV-3 > 100 µM | OVCAR-8 63.5 µM | KM12 37.2 µM | SF-268 86.9 µM | SF-539 > 100 µM | NCI-H23 > 100 µM | OVCAR-4 > 100 µM | SR > 100 µM

Clc1cc(Cl)c2c(Cl)cc(Cl)c3c2c1N=S=N3
inactive: HT-29 > 100 µM | SF-295 > 100 µM | 786-0 > 100 µM | MOLT-4 2.86 µM | M14 > 100 µM | SK-OV-3 > 100 µM | SNB-75 > 100 µM | OVCAR-8 > 100 µM | KM12 > 100 µM | SF-268 > 100 µM | SF-539 > 100 µM | NCI-H23 > 100 µM | RPMI-8226 > 100 µM | OVCAR-4 > 100 µM

CC(=O)OC12c3ccccc3C1CCCC21OCCCO1 (centres undefined)
inactive: HT-29 > 100 µM | SF-295 > 100 µM | SN12C > 100 µM | 786-0 > 100 µM | MOLT-4 > 100 µM | M14 > 100 µM | SK-OV-3 > 100 µM | SNB-75 37.5 µM | HOP-62 > 100 µM | OVCAR-8 > 100 µM | KM12 > 100 µM | SF-268 > 100 µM | SF-539 > 100 µM | NCI-H23 > 100 µM | RPMI-8226 > 100 µM | OVCAR-4 > 100 µM

CC1=C2O[B-](c3ccccc3)(c3ccccc3)[O+]=C2C=CN1
inactive: HT-29 54.7 µM | SF-295 48.2 µM | SN12C 45.7 µM | 786-0 46.2 µM | MOLT-4 20.2 µM | M14 40 µM | SK-OV-3 > 100 µM | SNB-75 22.8 µM | HOP-62 25.9 µM | OVCAR-8 41.2 µM | NCI-H23 36.6 µM | RPMI-8226 28.3 µM | OVCAR-4 64.7 µM

O=C1NC(=O)C2C(=O)NC(=O)C1C2(c1ccccc1)c1ccc(Cl)cc1 (centres undefined)
inactive: HT-29 > 100 µM | SF-295 > 100 µM | SN12C > 100 µM | 786-0 > 100 µM | MOLT-4 > 100 µM | M14 > 100 µM | SK-OV-3 > 100 µM | SNB-75 > 100 µM | HOP-62 > 100 µM | OVCAR-8 > 100 µM | KM12 > 100 µM | SF-268 > 100 µM | SF-539 > 100 µM | NCI-H23 > 100 µM | RPMI-8226 > 100 µM | OVCAR-4 > 100 µM

CN(/N=C/c1cccc2cccnc12)c1ccccc1
inactive: HT-29 44.2 µM | SF-295 99.3 µM | SN12C > 100 µM | 786-0 55.3 µM | MOLT-4 > 100 µM | M14 > 100 µM | SK-OV-3 > 100 µM | SNB-75 20.4 µM | HOP-62 76.2 µM | OVCAR-8 > 100 µM | KM12 78.3 µM | SF-268 > 100 µM | SF-539 37.2 µM | NCI-H23 59.8 µM | RPMI-8226 > 100 µM | OVCAR-4 87.5 µM

CC1=NOC(=O)C1/N=N/c1ccc(Br)c(C)c1 (centres undefined)
inactive: HT-29 36.2 µM | SF-295 23 µM | SN12C 18.2 µM | 786-0 20 µM | MOLT-4 18.4 µM | M14 20.5 µM | SK-OV-3 34.8 µM | SNB-75 30.5 µM | HOP-62 22.3 µM | OVCAR-8 17.9 µM | KM12 26.1 µM | SF-268 22.1 µM | SF-539 20.2 µM | NCI-H23 21.6 µM | RPMI-8226 15.9 µM | OVCAR-4 15.2 µM

NC12CC3CC(C1)CC(Cl)(C3)C2
inactive: HT-29 > 100 µM | 786-0 > 100 µM | MOLT-4 > 100 µM | M14 > 100 µM | SK-OV-3 > 100 µM | SNB-75 > 100 µM | HOP-62 > 100 µM | OVCAR-8 > 100 µM | KM12 > 100 µM | SF-539 > 100 µM | NCI-H23 > 100 µM | RPMI-8226 > 100 µM

COc1ccc2c(c1)[n+]([O-])c(-c1c(Cl)cccc1Cl)c(N)[n+]2[O-]
inactive: HT-29 55.5 µM | SF-295 61 µM | SN12C 46.1 µM | 786-0 56.5 µM | MOLT-4 75.3 µM | M14 31.5 µM | SK-OV-3 > 100 µM | SNB-75 > 100 µM | OVCAR-8 61.7 µM | KM12 87.3 µM | SF-268 40.6 µM | NCI-H23 25.1 µM | RPMI-8226 80.4 µM | OVCAR-4 71.8 µM
